# In PubChem BioAssay AID1259407 (Chemical Carcinogenesis Research Information System (CCRIS), 2018):
# Activity calls are given as the source filed them. The rule behind the calls is not given here.
# Test system: CCRIS mutagenicity, Ames/micronucleus/aberration tests
# Assay: CCRIS mutagenicity studies
# [1] = Test System: AMES SALMONELLA TYPHIMURIUM, Strain/Indicator: TA98, Metabolic Activation: NONE, Method: STANDARD PLATE
# [2] = Test System: AMES SALMONELLA TYPHIMURIUM, Strain/Indicator: TA100, Metabolic Activation: NONE, Method: STANDARD PLATE
smiles,measurement,setting,value
CC(=O)Nc1cccc2c1-c1ccccc1C2,mutagenic call,"Test System: AMES SALMONELLA TYPHIMURIUM, Strain/Indicator: TA98, Metabolic Activation: HUMAN, RED BLOOD CELL, CYTOSOL, Method: PREINCUBATION",inactive; negative
same,mutagenic call,"Test System: AMES SALMONELLA TYPHIMURIUM, Strain/Indicator: TA1538, Metabolic Activation: RAT, LIVER, CYTOSOL, 4-ACETYLAMINOFLUORENE, Method: STANDARD PLATE",inactive; negative
same,mutagenic call,"Test System: AMES SALMONELLA TYPHIMURIUM, Strain/Indicator: TA1538, Metabolic Activation: RAT, LIVER, CYTOSOL, AROCLOR 1254, Method: STANDARD PLATE",active; positive
same,mutagenic call,"Test System: AMES SALMONELLA TYPHIMURIUM, Strain/Indicator: TA1538, Metabolic Activation: RAT, LIVER, CYTOSOL, Method: STANDARD PLATE",inactive; negative
same,mutagenic call,"Test System: AMES SALMONELLA TYPHIMURIUM, Strain/Indicator: TA1538, Metabolic Activation: RAT, LIVER, MICROSOMES, 4-ACETYLAMINOFLUORENE, Method: STANDARD PLATE",active; positive
same,mutagenic call,"Test System: AMES SALMONELLA TYPHIMURIUM, Strain/Indicator: TA1538, Metabolic Activation: RAT, LIVER, MICROSOMES, AROCLOR 1254, Method: STANDARD PLATE",active; positive
same,mutagenic call,"Test System: AMES SALMONELLA TYPHIMURIUM, Strain/Indicator: TA1538, Metabolic Activation: RAT, LIVER, MICROSOMES, Method: STANDARD PLATE",inactive; negative
same,mutagenic call,"Test System: AMES SALMONELLA TYPHIMURIUM, Strain/Indicator: TA1538, Metabolic Activation: RAT, LIVER, S-9, PHENOBARBITAL, Method: STANDARD PLATE",active; positive
same,mutagenic call,"Test System: E. COLI, Strain/Indicator: WP2 UVRA, Metabolic Activation: HAMSTER, LIVER, S-9, AROCLOR 1254, Method: STANDARD PLATE",inactive; negative
same,mutagenic call,"Test System: E. COLI, Strain/Indicator: WP2 UVRA, Metabolic Activation: HAMSTER, LIVER, S-9, Method: STANDARD PLATE",inactive; negative
same,mutagenic call,"Test System: E. COLI, Strain/Indicator: WP2 UVRA, Metabolic Activation: MOUSE, LIVER, S-9, AROCLOR 1254, Method: STANDARD PLATE",inactive; negative
same,mutagenic call,"Test System: E. COLI, Strain/Indicator: WP2 UVRA, Metabolic Activation: MOUSE, LIVER, S-9, Method: STANDARD PLATE",inactive; negative
same,mutagenic call,"Test System: E. COLI, Strain/Indicator: WP2 UVRA, Metabolic Activation: NONE, Method: STANDARD PLATE",inactive; negative
same,mutagenic call,"Test System: E. COLI, Strain/Indicator: WP2 UVRA, Metabolic Activation: RAT, LIVER, S-9, AROCLOR 1254, Method: STANDARD PLATE",inactive; negative
same,mutagenic call,"Test System: E. COLI, Strain/Indicator: WP2 UVRA, Metabolic Activation: RAT, LIVER, S-9, Method: STANDARD PLATE",inactive; negative
same,mutagenic call,"Test System: MOUSE LYMPHOMA, Strain/Indicator: L5178Y (TK+/TK-), Metabolic Activation: NONE, Method: SUSPENSION/PLATE",inactive; negative
same,mutagenic call,"Test System: UDS, Strain/Indicator: HEPG2/THYMIDINE INCORPORATION, Metabolic Activation: NONE, Method: AUTORADIOGRAPHY",inactive; negative
CC1(C)S[C@@H]2[C@H](NC(=O)Cc3ccccc3)C(=O)N2[C@H]1C(=O)O,mutagenic call,[1],inactive; negative
same,mutagenic call,[2],inactive; negative
same,mutagenic call,"Test System: AMES SALMONELLA TYPHIMURIUM, Strain/Indicator: TA1537, Metabolic Activation: NONE, Method: STANDARD PLATE",inactive; negative
same,mutagenic call,"Test System: E. COLI, Strain/Indicator: WP2 (HCR), Metabolic Activation: NONE, Method: STANDARD PLATE",inactive; negative
C(=N\NC1=NCCN1)/c1c2ccccc2c(/C=N/NC2=NCCN2)c2ccccc12,mutagenic call,"Test System: AMES SALMONELLA TYPHIMURIUM, Strain/Indicator: TA97A, Metabolic Activation: NONE, Method: STANDARD PLATE",active; positive
same,mutagenic call,[1],active; positive
same,mutagenic call,"Test System: AMES SALMONELLA TYPHIMURIUM, Strain/Indicator: TA1538, Metabolic Activation: NONE, Method: STANDARD PLATE",active; positive
CC(=O)O[C@@H]1[C@H](OC(C)=O)COC(Nc2ccc([N+](=O)[O-])cc2)[C@@H]1OC(C)=O (some centres undefined),mutagenic call,[2],active; positive
O=[N+]([O-])C(Cl)(Cl)Br,mutagenic call,"Test System: Ames Salmonella typhimurium, Strain/Indicator: RSJ100, Metabolic Activation: None, Method: Standard plate",inactive; negative
same,mutagenic call,"Test System: Ames Salmonella typhimurium, Strain/Indicator: RSJ100, Metabolic Activation: Rat, Liver, S-9, Aroclor, Method: Standard plate",active; positive
same,mutagenic call,"Test System: Ames Salmonella typhimurium, Strain/Indicator: TA98, Metabolic Activation: None, Method: Standard plate",inactive; negative
same,mutagenic call,"Test System: Ames Salmonella typhimurium, Strain/Indicator: TA98, Metabolic Activation: Rat, Liver, S-9, Aroclor, Method: Standard plate",inactive; negative
same,mutagenic call,"Test System: Ames Salmonella typhimurium, Strain/Indicator: TA100, Metabolic Activation: None, Method: Standard plate",inactive; negative
same,mutagenic call,"Test System: Ames Salmonella typhimurium, Strain/Indicator: TA100, Metabolic Activation: Rat, Liver, S-9, Aroclor, Method: Standard plate",inactive; negative
same,mutagenic call,"Test System: Ames Salmonella typhimurium, Strain/Indicator: TA104, Metabolic Activation: None, Method: Standard plate",active; positive
same,mutagenic call,"Test System: Ames Salmonella typhimurium, Strain/Indicator: TA104, Metabolic Activation: Rat, Liver, S-9, Aroclor, Method: Standard plate",active; positive
same,mutagenic call,"Test System: Ames Salmonella typhimurium, Strain/Indicator: TPT100, Metabolic Activation: None, Method: Standard plate",inactive; negative
CC(=O)N[C@@H](CS/C(Cl)=C(\Cl)C(Cl)=C(Cl)Cl)C(=O)O,mutagenic call,"Test System: AMES SALMONELLA TYPHIMURIUM, Strain/Indicator: TA100, Metabolic Activation: NONE, Method: PREINCUBATION",inactive; negative
same,mutagenic call,"Test System: AMES SALMONELLA TYPHIMURIUM, Strain/Indicator: TA100, Metabolic Activation: RAT, KIDNEY, CYTOSOL, Method: PREINCUBATION",active; positive
same,mutagenic call,"Test System: AMES SALMONELLA TYPHIMURIUM, Strain/Indicator: TA100, Metabolic Activation: RAT, LIVER, S-9, AROCLOR 1254 (10%), Method: PREINCUBATION",active; positive
Cc1ccc(-c2nc3ccccc3o2)cc1,mutagenic call,[1],inactive; negative
same,mutagenic call,"Test System: AMES SALMONELLA TYPHIMURIUM, Strain/Indicator: TA98, Metabolic Activation: S-9, Method: STANDARD PLATE",inactive; negative
Cc1nc(N)cc2[nH]c3ccccc3c12,mutagenic call,"Test System: AMES SALMONELLA TYPHIMURIUM, Strain/Indicator: TA98, Metabolic Activation: HUMAN, BLOOD, CYTOSOL, Method: PREINCUBATION",active; positive
same,mutagenic call,"Test System: AMES SALMONELLA TYPHIMURIUM, Strain/Indicator: TA98, Metabolic Activation: MOUSE, LIVER, HEPATOCYTES",active; positive
same,mutagenic call,"Test System: AMES SALMONELLA TYPHIMURIUM, Strain/Indicator: TA98, Metabolic Activation: MOUSE, LIVER, HEPATOCYTES, 2,3,7,8-TETRACHLORODIBENZO-P-DIOXIN",active; positive
same,mutagenic call,"Test System: AMES SALMONELLA TYPHIMURIUM, Strain/Indicator: TA98, Metabolic Activation: MOUSE, LIVER, MICROSOMES",active; positive
same,mutagenic call,"Test System: AMES SALMONELLA TYPHIMURIUM, Strain/Indicator: TA98, Metabolic Activation: MOUSE, LIVER, MICROSOMES, 2,3,7,8-TETRACHLORODIBENZO-P-DIOXIN",active; positive
same,mutagenic call,"Test System: AMES SALMONELLA TYPHIMURIUM, Strain/Indicator: TA98, Metabolic Activation: MOUSE, LIVER, MICROSOMES, TCDD, Method: STANDARD PLATE",active; positive
same,mutagenic call,"Test System: AMES SALMONELLA TYPHIMURIUM, Strain/Indicator: TA98, Metabolic Activation: MOUSE, LIVER, MICROSOMES, Method: STANDARD PLATE",active; positive
same,mutagenic call,"Test System: AMES SALMONELLA TYPHIMURIUM, Strain/Indicator: TA98, Metabolic Activation: RAT, BLADDER, S-9, PCB, Method: FLUCTUATION TEST",active; positive
same,mutagenic call,"Test System: AMES SALMONELLA TYPHIMURIUM, Strain/Indicator: TA98, Metabolic Activation: RAT, HEPATOCYTES, AROCLOR 1254, Method: PREINCUBATION",active; positive
same,mutagenic call,"Test System: AMES SALMONELLA TYPHIMURIUM, Strain/Indicator: TA98, Metabolic Activation: RAT, LIVER, S-9, AROCLOR 1254, Method: PREINCUBATION",active; positive
same,mutagenic call,"Test System: AMES SALMONELLA TYPHIMURIUM, Strain/Indicator: TA100, Metabolic Activation: RAT, BLADDER, S-9, PCB, Method: FLUCTUATION TEST",active; positive
same,mutagenic call,"Test System: AMES SALMONELLA TYPHIMURIUM, Strain/Indicator: TA100, Metabolic Activation: RAT, LIVER, S-9, AROCLOR 1254, Method: PREINCUBATION",inactive; negative
same,mutagenic call,"Test System: AMES SALMONELLA TYPHIMURIUM, Strain/Indicator: YG1019, Metabolic Activation: RAT LIVER S-9, AROCLOR, Method: PREINCUBATION",active; positive
same,mutagenic call,"Test System: UDS HAMSTER HEPATOCYTES, Strain/Indicator: THY INCORP, Metabolic Activation: NONE, Method: LIQUID SCINTILLATION COUNTING",inactive; negative
same,mutagenic call,"Test System: UDS RAT HEPATOCYTES, Strain/Indicator: THY INCORP, Metabolic Activation: NONE, Method: LIQUID SCINTILLATION COUNTING",inactive; negative
